From PubChem BioAssay AID602421 (The Scripps Research Institute Molecular Screening Center, 2012) come the findings set out here.

“And” between values parts separate entries of the source, which are not always exact repeats. Equal values may be shown once. The source made the active and inactive calls. The rule behind the calls is not given here.

In this test the target is AddAB helicase-nuclease (Helicobacter pylori 26695). Put plainly: AddAB nuclease inhibitors, potency, late-stage follow-up, biochemical, radioactivity, purified enzyme, IC50 (AID 602421). The settings on record: radioactive DNA degradation.
Broadly, the IC50 is the concentration needed to halve the response being measured. On to `O=C(Nc1ncccn1)c1ccc([N+](=O)[O-])o1`, for which the IC50 was > 100 µM (inactive).
Then `CCn1cc(C(=O)O)c(=O)c2cc(F)c(N3CCN(C(=S)Nc4ccccc4C(F)(F)F)CC3)cc21`, with 79 µM; and `N#Cc1c(NC(=O)c2ccc(-c3ccccc3[N+](=O)[O-])o2)sc2c1CCCC2`, with > 100 µM (inactive).
Take `Cc1ccc(C(=O)Nc2sc3c(c2C#N)CCCCC3)o1`: the IC50 was > 100 µM (inactive).
Then `CCn1cc(C(=O)O)c(=O)c2cnc(N3CCN(C(=S)Nc4cccc(C(F)(F)F)c4)CC3)nc21`, with 27 µM; and `N#Cc1c(NC(=O)c2ccco2)sc2c1CCC2`, with 36 µM; and `N#Cc1c(NC(=O)c2cccc(F)c2)sc2c1CCCC2`, with > 100 µM (inactive).
On to `N#Cc1c(NC(=O)c2ccc([N+](=O)[O-])o2)sc2c1CCC2`, for which the IC50 is 96 µM.
Then `O=C(OCC(=O)c1cccs1)c1ccc([N+](=O)[O-])o1`, with > 100 µM (inactive).
Then `N#Cc1c(NC(=O)c2ccccc2C(=O)O)sc2c1CCCC2`, with > 100 µM (inactive); and `CCn1cc(C(=O)O)c(=O)c2cnc(N3CCN(C(=S)NCc4ccccc4)CC3)nc21`, with “inactive”; and `CNC(=O)c1c(NC(=O)c2nc(SCc3ccccc3)ncc2Cl)sc2c1CCCC2`, with 55 µM.
Next, `Cc1ccc2nc(/C(C#N)=C\c3ccc([N+](=O)[O-])o3)[nH]c2c1`: > 166 µM (inactive); `O=C(NCc1cccnc1)c1ccc([N+](=O)[O-])o1`: > 100 µM (inactive).
Consider `N#Cc1c(NC(=O)c2cnccn2)sc2c1CCCC2`, for which the concentration for half-maximal inhibition (IC50) is 17 µM.
Next, `NC(=O)c1ccsc1NC(=O)COC(=O)c1ccc([N+](=O)[O-])o1`: > 100 µM (inactive); `CCn1cc(C(=O)O)c(=O)c2cnc(N3CCN(C(=S)NC(=O)c4cccc(C)c4)CC3)nc21`: “inactive”; `CCn1cc(C(=O)O)c(=O)c2cc(F)c(N3CCN(C(=S)Nc4cccc(C(F)(F)F)c4)CC3)cc21`: 11 µM.
Next, `N#Cc1c(NC(=O)c2ccccc2)sc2c1CCC2`: > 100 µM (inactive); `CCn1cc(C(=O)O)c(=O)c2cnc(N3CCN(C(=S)Nc4ccccc4C(F)(F)F)CC3)nc21`: 34 µM and > 100 µM (inactive); `COC(=O)c1c(-c2ccccc2)csc1NC(=O)c1cnccn1`: 11 µM.
With `C=CCn1c(Sc2ncc([N+](=O)[O-])s2)n[nH]c1=O`, the 50% inhibitory concentration (IC50) is 93 µM.
Next, `Cc1sc(NC(=O)c2ccc(Br)o2)c(C#N)c1C`: 25 µM; `O=C(Nc1cccc(NC(=O)c2ccccc2Cl)c1)c1ccc([N+](=O)[O-])o1`: > 100 µM (inactive).
Next, `CC1(C)Cc2c(sc(NC(=O)c3ccco3)c2C#N)CO1`: > 100 µM (inactive); `Cc1cccnc1NC(=O)c1ccc([N+](=O)[O-])o1`: > 166 µM (inactive).
Next, `O=C(Nc1ccc(N2CCOCC2)cc1)c1ccc([N+](=O)[O-])o1`: > 100 µM (inactive); `N#Cc1c(NC(=O)c2ccc([N+](=O)[O-])o2)sc2c1CCCC2`: > 100 µM (inactive).
